Publication PMC10762078, “Role of UPF1-LIN28A interaction during early differentiation of pluripotent stem cells” (Nature Communications, 2024)
Ends that are not written are not given here.

How the values were obtained:
[1] = system: nonsense-mediated mRNA decay (NMD); assay: NMD reporter (Gl, GPx1) mRNA by RT-qPCR in LIN28A-expressing HeLa cells with CPP-peptides (Fig. 5c); assay type: cell-based; settings: for relative Gl mRNA level / relative GPx1 mRNA level: normalised to MUP
Method: Fig. 5 CPP-conjugated peptide inhibits UPF1-LIN28A interaction. a Schematic representation of designated CPP-conjugated peptides. The amino acid sequences and positions of each peptide on UPF1 are indicated. CPP-P1 and -P2 served as negative controls. CPP-FITC was used to evaluate cell-penetrating ability in cells. b 293T cell lysates co-transfected with pCMV-MYC-UPF1 and pGEX-GST-LIN28A and incubated with the indicated CPP-conjugated peptides were employed for GST pull-down. c Relative levels of NMD reporters were measured in LIN28A-expressing HeLa cells incubated with the indicated CPP-conjugated peptides. mRNA level was normalised to that of MUP mRNA. d PLA was performed using LIN28A-overexpressing HeLa cells and hPSCs in the presence of indicated peptides. Red: fluorophore in amplified DNA circle, and Blue: DAPI stained nucleus. Scale bars, 50 μm. Unpaired Student’s t-test was used. Data are presented as mean values ± SEM. All statistical test used were two-sided. The minimum number of independent biological replicate experiments was b–d n = 3. The experiments were conducted three times, each iteration producing consistent results.
(§1) For CPP-conjugated peptide delivery, HeLa, 293T, and PA-1 cells were incubated with CPP-conjugated peptides or CPP-FITC at 2 μM in DMEM with 10% FBS for 12 h a day before cell harvest. hPSCs were treated with CPP-conjugated peptides at 10 μM in mTeSR Plus Medium, and the peptide-containing medium was changed every day over 10 days. The ROCK inhibitor (Tocris Bioscience, Y-27632) treated-hPSCs were dissociated into single cells using Accutase (Merck, SCR005) and differentiated into ectoderm, mesoderm, and endoderm using the STEMdiff Trilineage Differentiation Kit ([…] Technologies, 05230) following the manufacturer’s protocol. Differentiated cells treated with CPP-conjugated peptides were analysed at 0, 3, and 5 days for ectoderm and endoderm, and at 0, 3, and 4 days for mesoderm.
Total RNA purification and RT-qPCR
Total RNA was extracted using TRIzol reagent (Invitrogen) according to the manufacturer’s protocol. After extraction, RNA was incubated with RQ1 RNase-Free DNase (Promega) to remove the exogenous and endogenous DNA.
cDNA was synthesised using RevertAid Reverse Transcriptase (Thermo Fisher Scientific, EP0441) with synthesised random hexamer (Macrogen) for total RNA or stem-loop primers for miRNA. For RT-qPCR reactions, the SensiFAST SYBR No-ROX kit (Meridian Bioscience) was used according to the manufacturer’s protocol. All data analysis and visualisation were conducted using R 3.6.1 [www.r-project.org] or GraphPad Prism 10. RT primers for miRNA and RT-qPCR primer sequences are provided in Supplementary Data 6.
Fold change in NMD efficiency represents the ratio of test NMD (PTC-containing transcript) to control NMD (PTC-free transcript), where NMD is the relative abundance of PTC-containing mRNA divided by the relative abundance of PTC-free mRNA. The abundance of MUP mRNA was used as the reference.

CHA15 cells [2] = assay: Immunofluorescence counting of OCT4- and NANOG-positive cells (Fig. 6c); assay type: cell-based, human; settings: for NANOG-positive cells, fluorescence quantification, mean / OCT4-positive cells, fluorescence quantification, mean: CHA15, CPP-peptide 10 μM, mean of 4 sets; for NANOG fluorescence, difference between means vs P1 ± SEM / OCT4 fluorescence, difference between means vs P1 ± SEM: CHA15, vs CPP-P1
Method: as §1
hPSCs or differentiated cells were fixed in 4% paraformaldehyde (Sigma-Aldrich). After 15–20 min, the cells were washed with 0.1% bovine serum albumin in phosphate-buffered saline (BSA/PBS) thrice and blocked for 1 h by adding 0.3% Triton X-100 (Sigma-Aldrich) and 10% normal goat serum (NGS; Fitzgerald industries, NG22S). After blocking, cells were incubated with the following primary antibodies: anti-UPF1 (Cell Signaling Technology, 12040; 1:500), LIN28A (Cell Signaling Technology, 3978; 1:500), OCT4 (Santa Cruz, sc-5279; 1:500), NANOG (Cell Signaling Technology, 4903; 1:500), DLK1 (GeneTex, GTX60511; 1:500), SOX1 (Cell Signaling Technology, 4194; 1:500), or LHX2 (GeneTex, GTX129241; 1:500). Primary antibodies were incubated overnight at 4 °C followed by incubation with the following secondary antibodies: Cy3 (Jackson ImmunoResearch, 115-165-146; 1:500) or Alexa Fluor 488 (Invitrogen, A-11008; 1:500) followed by the incubation with secondary fluorescence-conjugated antibodies for 1 h. The cells were mounted in […] with DAPI mounting medium (Vector Laboratories, H1200).
Immunofluorescence staining, proximity ligation assay imaging, and cell-penetrating efficiency of CPP-FITC were imaged with a confocal laser scanning microscope (Leica, TSC SP5) or immunofluorescence microscope (Leica, DM5000B). Z-stacks were captured, with sections spanning the entire cell. The LAS X Life Science program was used to obtain the maximum intensity projections and cross-sections of the confocal images.

CHA15 cells [3] = assay: Flow cytometry (FACS) of OCT4- and NANOG-positive cells (Fig. 6c, Supplementary Fig. 6b); assay type: cell-based, human; settings: for NANOG-positive cells, FACS (relative), mean / OCT4-positive cells, FACS (relative), mean: CHA15, CPP-peptide 10 μM, mean of 3 sets; for NANOG FACS, difference between means vs P1 ± SEM / OCT4 FACS, difference between means vs P1 ± SEM: CHA15, vs CPP-P1
Method: as §1
To evaluate the relative cell number expressing the indicated proteins, CHA15 cells with the indicated CPP-conjugated peptide were fixed with BD Cytofix Fixation Buffer (BD Biosciences Pharmingen, 554655) followed by permeabilization with 0.1% BSA/PBS solution supplemented with 10% NGS and 0.3% Triton X-100 for 1 h at 4 °C. After washing, cells were incubated with the primary antibodies (OCT4 1:1000, NANOG 1:1000, DLK1 1:1000, SOX2 1:1000, LHX2 1:1000) and then, secondary antibody, Alexa Fluor 488 (1:1000), was applied. The positive cells were determined using flow cytometry (FACSCanto, BD Pharmingen), and data was analysed using the Flow Jo-v10 software program.

[4] = LIN28A-expressing HeLa, CPP-peptide, replicate set1
[5] = LIN28A-expressing HeLa, CPP-peptide, replicate set2
[6] = LIN28A-expressing HeLa, CPP-peptide, replicate set3

Row | Substance | relative GPx1 mRNA level [1, 4] | relative Gl mRNA level [1, 4] | relative GPx1 mRNA level [1, 5] | relative Gl mRNA level [1, 5] | relative GPx1 mRNA level [1, 6] | relative Gl mRNA level [1, 6] | NANOG-positive cells, fluorescence quantification, mean (CHA15 cells [2]) | OCT4-positive cells, fluorescence quantification, mean (CHA15 cells [2]) | NANOG-positive cells, FACS (relative), mean (CHA15 cells [3]) | OCT4-positive cells, FACS (relative), mean (CHA15 cells [3]) | NANOG fluorescence, difference between means vs P1 ± SEM (CHA15 cells [2]) | OCT4 fluorescence, difference between means vs P1 ± SEM (CHA15 cells [2]) | NANOG FACS, difference between means vs P1 ± SEM (CHA15 cells [3]) | OCT4 FACS, difference between means vs P1 ± SEM (CHA15 cells [3]) | also measured
1 | KKKWCRKKKSSADEKRYRALKRTAERELLMNA [CPP-P8, CPP conjugated to P8] |  |  |  |  |  |  |  |  |  |  |  |  |  |  | increased Gl Ter and GPx1 Ter levels caused by LIN28A ([1]; LIN28A-expressing HeLa, 2 μM, 12 h): efficiently reversed by CPP-P8; levels of OCT4 and NANOG (CHA15 cells [2]; CHA15, proliferative state): significantly decreased
2 | N-QKLDQKELQLEPM-C [P1, reference compound] | 2.435 | 3.179 | 2.54 | 5.571 | 2.254 | 4.729 | 85.74 | 92.4 | 1 | 1 |  |  |  |  | relative Gl mRNA level ([1]; FLAG control (no LIN28A) HeLa, CPP-peptide, replicate set2): 1.21; relative GPx1 mRNA level ([1]; FLAG control (no LIN28A) HeLa, CPP-peptide, replicate set3): 1.026
3 | N-MPELQKLQQLKDE-C [P2, peptide derived from the UPF1 (419–700) domain] |  |  |  |  |  |  | 81.51 | 89.62 | 0.969 | 0.9851 | -4.223 ± 2.867 | -2.780 ± 1.262 | -0.03103 ± 0.01235 | -0.01489 ± 0.005688 | 
4 | KKKWCRKKKSSADEKRYRALKRTAERELLMNA [P8] | 1.006 | 1.305 | 1.229 | 0.7968 | 0.4585 | 1.128 | 14.24 | 22.84 | 0.7195 | 0.7944 | -71.49 ± 1.616 | -69.57 ± 2.939 | -0.2805 ± 0.006838 | -0.2056 ± 0.01612 | GPx1 mRNA, mean ([1]; LIN28A-expressing HeLa, CPP-peptide, mean in t-test output, n = 3): 0.2385; GPx1 mRNA, difference between means (C - B) ± SEM ([1]; LIN+P8 minus LIN+P1): -0.4015 ± 0.06473; Gl mRNA, difference between means (C - B) ± SEM ([1]; LIN+P8 minus LIN+P1): -1.443 ± 0.3024
